Laboratory results as given in patent US11680060B2, “Bicycloheptane pyrrolidine orexin receptor agonists” (Merck Sharp & Dohme LLC, priority 2020, dated 2023).

Target: human OX2R (Homo sapiens (Human), UniProt O43614)
Test: IPOne (IP-1) assay in CHO cells expressing human OX2R
Format: cell-based
Details: percentage of mean max effect of a reference compound at 1 uM (100% activity by comparison to Orexin A), human OX2R; for Emax: CHO, read-out: Emax (%)
From the text: The utility of the compounds in accordance with the present invention as orexin receptor OX1R and/or OX2R agonists may be readily determined without undue experimentation by methodology well known in the art. Both the OX1R and/or OX2R G-coupled protein receptors (GPCRs) couple through the Gαq signaling pathway, which ultimately promotes calcium mobilization via inositol triphosphate (IP3) production. The half-life of IP-3 is relatively short, being rapidly metabolized to inositol monophosphate (IP-1), which can be readily detected using a commercially available assay kit (IP-One; Cisbio; cat #621PAPEC) coupled with a cell line expressing the target receptor(s) of interest. The utility of the compounds in accordance with the present invention as orexin receptor OX1R and/or OX2R agonists may be determined utilizing this assay.
In a typical experiment, the OX1 and OX2 receptor agonist activity is determined in accordance with the following general experimental method. Chinese hamster ovary (CHO) cells expressing human OX1R and/or the human OX2R were grown in Iscove's modified DMEM containing glutaMAX™, 1% G418, 100 U/mL penicillin, 100 μg/mL streptomycin and 10% heat-inactivated qualified fetal bovine serum (FBS). The OX2R cells were seeded at 10,000 cells/well/50 μL and the OX1R cells were seeded at 20,000 cells/well/50 μL into 384-well white tissue culture plates (Greiner; cat #781080). All cell/media reagents were from GIBCO-Invitrogen Corp. The seeded cell plate(s) were incubated at 37° C. with 5% CO2 and 85% humidity for 20-24 hours. On the day of the assay, assay-ready compound plates were prepared using an acoustic liquid handler (ECHO; Labcyte), which dispensed sufficient volume of test compound stock (10 mM in DMSO) or 100% DMSO to prepare 10 point, ½-log dilutions in a final volume of 202.5 nL/well in all test wells of a 384-well diamond plate (Labcyte). Following completion of assay-ready plates, importantly, the next three steps were performed with minimal delay: 1) 20 μl of 1× stimulation buffer was added to the compound plate using a Multidrop Combi (small cassette, Thermo Fisher Scientific cat #24073290); 2) culture medium was removed from the cell plate using the Bluewasher plate washer (gentle spin; BlueCatBio); 3) 14 μl of compound/stimulation buffer mixture was added to the cell plate using a Bravo liquid handler (Agilent) prior to incubating cell plates at 37° C. with 5% CO2 and 85% humidity for 1 or 2 hours (OX1R and OX2R, respectively). During this incubation, IP-one detection reagents were prepared (38:1:1 lysis buffer:D2:AB-cryptate reagents). Six μL of mixed detection reagents were added to the cell plate using a Multidrop Combi (small cassette, Thermo Fisher Scientific cat #24073290) and incubated 60 minutes at room temperature in the dark. Fluorescence signal was detected using an Envision plate reader (Perkin Elmer) [LANCE/DELFIA Dual Enh (Em: APC 665; Ex: Cy5 620)].
For each compound, data were fit to a four parameter logistic fit (ActivityBase software) and the EC50 was reported as the inflection point of the resulting curve. Percent effect for each test compound was determined as the percentage of sample raw value/mean max effect, where the mean max effect was derived from the mean raw value of 32 control wells per assay plate (using Orexin A (cat #003-30) at 1 μM for human OX1R and a reference compound at 1 uM with 100% activity previously established by comparison to Orexin A for human OX2R). The intrinsic orexin receptor agonist activity of a compound which may be used in the present invention may be determined by these assays.

Sequence of human OX2R (O43614 whole entry): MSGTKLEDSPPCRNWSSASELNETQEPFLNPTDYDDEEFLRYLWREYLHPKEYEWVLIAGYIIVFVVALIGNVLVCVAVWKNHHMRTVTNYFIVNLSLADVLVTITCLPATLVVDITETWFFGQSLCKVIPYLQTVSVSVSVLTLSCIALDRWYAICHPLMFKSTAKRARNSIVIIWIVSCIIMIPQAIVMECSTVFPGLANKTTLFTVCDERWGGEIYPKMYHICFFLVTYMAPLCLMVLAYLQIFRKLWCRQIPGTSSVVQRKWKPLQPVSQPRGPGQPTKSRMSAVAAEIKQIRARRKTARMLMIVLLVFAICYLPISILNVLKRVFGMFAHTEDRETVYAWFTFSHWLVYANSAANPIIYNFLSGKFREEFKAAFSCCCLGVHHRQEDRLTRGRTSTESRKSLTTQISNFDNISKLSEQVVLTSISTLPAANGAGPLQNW

| SMILES | Emax (%) | Emax |
| --- | --- | --- |
| CC(C)OC(=O)N1[C@H](C)C[C@H](NS(=O)(=O)N(C)C)[C@@H]1COC1CCC2(c3ncccn3)CC2C1 (stereo partly drawn) [Example 8, isopropyl (2R,3S,5R)-3-((N,N-dimethylsulfamoyl)amino)-5-methyl-2-(((6-(pyrimidin-2-yl)bicyclo[4.1.0]heptan-3-yl)oxy)methyl)pyrrolidine-1-carboxylate] | 95.4% | – |
| COC(=O)N1[C@H](C)C[C@H](NS(=O)(=O)N(C)C)[C@@H]1COC1CCC2(c3ccccn3)CC2C1 (stereo partly drawn) [Example 9, methyl (2R,3S,5R)-3-((N,N-dimethylsulfamoyl)amino)-5-methyl-2-(((6-(pyridin-2-yl)bicyclo[4.1.0]heptan-3-yl)oxy)methyl)pyrrolidine-1-carboxylate] | – | 99% |
| COC(=O)N1[C@H](C)C[C@H](NS(=O)(=O)N(C)C)[C@@H]1COC1CCC2(c3cnccn3)CC2C1 (stereo partly drawn) [Example 10, methyl (2R,3S,5R)-3-((N,N-dimethylsulfamoyl)amino)-5-methyl-2-(((6-(pyrazin-2-yl)bicyclo[4.1.0]heptan-3-yl)oxy)methyl)pyrrolidine-1-carboxylate] | – | 85.6% |
| COC(=O)N1[C@H](C)C[C@H](NS(=O)(=O)N(C)C)[C@@H]1COC1CCC2(c3cnccn3)CC2C1 (stereo partly drawn) [Example 13, methyl (2R,3S,5R)-3-((N,N-dimethylsulfamoyl)amino)-5-methyl-2-(((6-(pyrazin-2-yl)bicyclo[4.1.0]heptan-3-yl)oxy)methyl)pyrrolidine-1-carboxylate] | 82.0% | – |
| COC(=O)N1CC[C@H](NS(C)(=O)=O)[C@@H]1COC1CCC2(c3ncccn3)CC2C1 (stereo partly drawn) [Example 21, methyl (2R,3S)-3-(methylsulfonamido)-2-(((6-(pyrimidin-2-yl)bicyclo[4.1.0]heptan-3-yl)oxy)methyl)pyrrolidine-1-carboxylate] | 94.6% | – |
| CC(C)OC(=O)N1[C@H](C)C[C@H](NS(C)(=O)=O)[C@@H]1CO[C@H]1CC[C@@]2(c3ncc(F)cn3)C[C@H]2C1 [Example 28, isopropyl (2R,3S,5R)-2-((((1S,3S,6R)-6-(5-fluoropyrimidin-2-yl)bicyclo[4.1.0]heptan-3-yl)oxy)methyl)-5-methyl-3-(methylsulfonamido)pyrrolidine-1-carboxylate] | – | 103% |
| CC(C)OC(=O)N1[C@H](C)C[C@H](NS(C)(=O)=O)[C@@H]1CO[C@@H]1CC[C@]2(c3ncc(F)cn3)C[C@@H]2C1 [Example 29, isopropyl (2R,3S,5R)-2-((((1R,3R,6S)-6-(5-fluoropyrimidin-2-yl)bicyclo[4.1.0]heptan-3-yl)oxy)methyl)-5-methyl-3-(methylsulfonamido)pyrrolidine-1-carboxylate] | – | 102% |
| COC(=O)N1[C@H](C)C[C@H](NS(=O)(=O)CF)[C@@H]1CO[C@H]1CC[C@@]2(c3ncc(F)cn3)C[C@H]2C1 [Example 30, methyl (2R,3S,5R)-3-((fluoromethyl)sulfonamido)-2-((((1S,3S,6R)-6-(5-fluoropyrimidin-2-yl)bicyclo[4.1.0]heptan-3-yl)oxy)methyl)-5-methylpyrrolidine-1-carboxylate] | – | 99.2% |
| COC(=O)N1[C@H](C)C[C@H](NS(=O)(=O)C(F)(F)F)[C@@H]1CO[C@H]1CC[C@@]2(c3ncc(F)cn3)C[C@H]2C1 [Example 31, methyl (2R,3S,5R)-2-((((1S,3S,6R)-6-(5-fluoropyrimidin-2-yl)bicyclo[4.1.0]heptan-3-yl)oxy)methyl)-5-methyl-3-((trifluoromethyl)sulfonamido)pyrrolidine-1-carboxylate] | – | 101% |
| COC(=O)N1[C@H](C)C[C@H](NS(=O)(=O)CC(F)(F)F)[C@@H]1CO[C@H]1CC[C@@]2(c3ncc(F)cn3)C[C@H]2C1 [Example 32, methyl (2R,3S,5R)-2-((((1S,3S,6R)-6-(5-fluoropyrimidin-2-yl)bicyclo[4.1.0]heptan-3-yl)oxy)methyl)-5-methyl-3-((2,2,2-trifluoroethyl)sulfonamido)pyrrolidine-1-carboxylate] | – | 103% |
| CCCS(=O)(=O)N[C@H]1C[C@@H](C)N(C(=O)OC)[C@H]1CO[C@H]1CC[C@@]2(c3ncc(F)cn3)C[C@H]2C1 [Example 33, methyl (2R,3S,5R)-2-((((1S,3S,6R)-6-(5-fluoropyrimidin-2-yl)bicyclo[4.1.0]heptan-3-yl)oxy)methyl)-5-methyl-3-(propylsulfonamido)pyrrolidine-1-carboxylate] | – | 105% |
| COC(=O)N1[C@H](C)C[C@H](NS(=O)(=O)Cc2ccccc2)[C@@H]1CO[C@H]1CC[C@@]2(c3ncc(F)cn3)C[C@H]2C1 [Example 34, methyl (2R,3S,5R)-2-((((1S,3S,6R)-6-(5-fluoropyrimidin-2-yl)bicyclo[4.1.0]heptan-3-yl)oxy)methyl)-5-methyl-3-((phenylmethyl)sulfonamido)pyrrolidine-1-carboxylate] | – | 96.5% |
| COC(=O)N1[C@H](C)C[C@H](NS(=O)(=O)CC(C)C)[C@@H]1CO[C@H]1CC[C@@]2(c3ncc(F)cn3)C[C@H]2C1 [Example 35, methyl (2R,3S,5R)-2-((((1S,3S,6R)-6-(5-fluoropyrimidin-2-yl)bicyclo[4.1.0]heptan-3-yl)oxy)methyl)-5-methyl-3-((2-methylpropyl)sulfonamido)pyrrolidine-1-carboxylate] | – | 101% |
| CCS(=O)(=O)N[C@H]1C[C@@H](C)N(C(=O)OC)[C@H]1CO[C@H]1CC[C@@]2(c3ncc(F)cn3)C[C@H]2C1 [Example 36, methyl (2R,3S,5R)-3-(ethylsulfonamido)-2-((((1S,3S,6R)-6-(5-fluoropyrimidin-2-yl)bicyclo[4.1.0]heptan-3-yl)oxy)methyl)-5-methylpyrrolidine-1-carboxylate] | – | 102% |
| COC(=O)N1[C@H](C)C[C@H](NS(=O)(=O)CCl)[C@@H]1CO[C@H]1CC[C@@]2(c3ncc(F)cn3)C[C@H]2C1 [Example 37, methyl (2R,3S,5R)-3-((chloromethyl)sulfonamido)-2-((((1S,3S,6R)-6-(5-fluoropyrimidin-2-yl)bicyclo[4.1.0]heptan-3-yl)oxy)methyl)-5-methylpyrrolidine-1-carboxylate] | – | 103% |
| COC(=O)N1[C@H](C)C[C@H](NS(=O)(=O)C(C)C)[C@@H]1CO[C@H]1CC[C@@]2(c3ncc(F)cn3)C[C@H]2C1 [Example 38, methyl (2R,3S,5R)-2-((((1S,3S,6R)-6-(5-fluoropyrimidin-2-yl)bicyclo[4.1.0]heptan-3-yl)oxy)methyl)-5-methyl-3-((1-methylethyl)sulfonamido)pyrrolidine-1-carboxylate] | – | 100% |
| COC(=O)N1[C@H](C)C[C@H](NS(=O)(=O)N2CCC2)[C@@H]1CO[C@H]1CC[C@@]2(c3ncc(F)cn3)C[C@H]2C1 [Example 39, methyl (2R,3S,5R)-3-(azetidine-1-sulfonamido)-2-((((1S,3S,6R)-6-(5-fluoropyrimidin-2-yl)bicyclo[4.1.0]heptan-3-yl)oxy)methyl)-5-methylpyrrolidine-1-carboxylate] | – | 103% |
| COC(=O)N1[C@H](C)C[C@H](NS(=O)(=O)C2COC2)[C@@H]1CO[C@H]1CC[C@@]2(c3ncc(F)cn3)C[C@H]2C1 [Example 40, methyl (2R,3S,5R)-2-((((1S,3S,6R)-6-(5-fluoropyrimidin-2-yl)bicyclo[4.1.0]heptan-3-yl)oxy)methyl)-5-methyl-3-(oxetane-3-sulfonamido)pyrrolidine-1-carboxylate] | – | 102% |
| CCC(C)S(=O)(=O)N[C@H]1C[C@@H](C)N(C(=O)OC)[C@H]1CO[C@H]1CC[C@@]2(c3ncc(F)cn3)C[C@H]2C1 (stereo partly drawn) [Example 41, methyl (2R,3S,5R)-2-((((1S,3S,6R)-6-(5-fluoropyrimidin-2-yl)bicyclo[4.1.0]heptan-3-yl)oxy)methyl)-5-methyl-3-((1-methylpropyl)sulfonamido)pyrrolidine-1-carboxylate] | – | 104% |
